From patent US8765746B2 (Millennium Pharmaceuticals, Inc., priority 2010, dated 2014)

Tests used:
Format in all cases: biochemical
PI3Kalpha = molecular target: T1, PI3Kalpha (Homo sapiens, UniProt P42336); test: Human PI3Kα enzyme assay (HTRF); conditions: for inhibition at 1.11 µM: read-out: PI3Kalpha % inh; for PI3Kalpha % inh: at 1.11 μM
T1 construct: His (N); host or cells: SF9 insect cells (baculovirus)
Text: (§1) The catalytic subunits of PI3Ks are cloned into either pDEST8(p110 alpha) or pDEST10(p110beta, p110delta, and p110gamma) as N-terminal His tagged fusion proteins using the Gateway system (Invitrogen, catalog#11804-010 for pDEST8 and 11806-015 for pDEST10). The sequences are verified before recombinant protein expression using the Baculovirus Expression System with Gateway® Technology. The accession numbers for the subunits are as follows:
(§2) The regulatory subunits of PI3Ks are cloned into pDEST8 as un-tagged protein using the Gateway system (Catalog#11804-010). The sequences are verified before recombinant protein expression using the Baculovirus Expression System with Gateway® Technology. The accession numbers for the subunits are as follows:
(§3) For expression of the p110 complexes, the p85 (MOI of 4) is co-infected with p110 alpha, beta, and delta respectively (1MOI) in SF9 cells and harvested at 60 hours post co-infection. P110 gamma was infected at 1 MOI and harvested at 60 hours post infection.
(§4) For purification, PI3Ks are purified by Ni-NTA Agarose (Qiagen #30250) followed by Mono Q 10/100 GL (Ge Healthcare #17-5167-01). VPS34 is purified by Glutathione Sepharose 4 Fast Flow (GE Healthcare #17-5132-03) followed by HiTrap Q (GE Healthcare #17-1153-01).
1) Human PI3Kα enzyme assay method
(§5) 0.5 uL compounds in DMSO are added to wells of a 384 well microtitre plate (Corning 3575). At room temperature: 10 ul PI3K reaction buffer (50 mM Hepes, 5 mM DTT, 150 mM NaCl, 10 mM beta-glycerophosphate, 10 mM MgCl2, 0.25 mM sodium cholate and 0.001% CHAPS, pH 7.00) containing ATP (25 uM, Promega) is added followed immediately by 10 ul PI3K reaction buffer containing di-C8 PI(4,5)P2 (3.5 uM, CellSignals) and PI3Kalpha (0.4875 nM, Millennium Protein Sciences Group) and the mixture is incubated with shaking at room temperature for 30 minutes. Then 5 ul PI3K stop mix (50 mM Hepes, 5 mM DTT, 150 mM NaCl, 0.01% Tween-20, 15 mM EDTA and 25 nM biotin-PI(3,4,5)P3 (Echelon) is added to quench the reaction followed immediately by addition of 5 ul HTRF detection mix (50 mM Hepes, 5 mM DTT, 150 mM NaCl, 0.01% Tween-20, 40 mM KF, 10 nM GST:GRP-1 PH domain (Millennium Protein Sciences Group), 15 nM Streptavidin-XL (CisBio) and 0.375 nM anti-GST Eu++ antibody (CisBio) at pH 7.00). The plates are then incubated for 1 hour at room temperature with shaking and then read on a BMG PheraStar Plus reader.

PI3Kbeta = molecular target: T2, PI3Kbeta (Homo sapiens, UniProt P42338); test: Human PI3K beta enzyme assay (HTRF, as for PI3K alpha); conditions: at 1.11 μM; for inhibition at 1.11 µM: read-out: PI3Kbeta % inh
T2 construct: His (N); host or cells: SF9 insect cells (baculovirus)
Text: as §1, §2, §3, §4, §5
(§6) 2) Human PI3K beta, delta and gamma isoforms are tested using the procedure described for PI3K alpha above but with the following changes: PI3K beta (5.25 nM), PI3K delta (0.75 nM) and PI3K gamma (5 nM). All isoforms supplied by Millennium Protein Science Group.

PI3Kgamma = molecular target: T3, PI3Kgamma (Homo sapiens, UniProt P48736); test: Human PI3K gamma enzyme assay (HTRF, as for PI3K alpha); conditions: for inhibition at 1.11 µM: read-out: PI3Kgamma % inh
T3 construct: His (N); host or cells: SF9 insect cells (baculovirus)
Text: as §1, §2, §3, §4, §5, §6

PI3Kdelta = molecular target: T4, PI3Kdelta (Homo sapiens, UniProt O00329); test: Human PI3K delta enzyme assay (HTRF, as for PI3K alpha); conditions: for inhibition at 1.11 µM: read-out: PI3Kdelta % inh
T4 construct: His (N); host or cells: SF9 insect cells (baculovirus)
Text: as §1, §2, §3, §4, §5, §6

T1 sequence (P42336 whole entry): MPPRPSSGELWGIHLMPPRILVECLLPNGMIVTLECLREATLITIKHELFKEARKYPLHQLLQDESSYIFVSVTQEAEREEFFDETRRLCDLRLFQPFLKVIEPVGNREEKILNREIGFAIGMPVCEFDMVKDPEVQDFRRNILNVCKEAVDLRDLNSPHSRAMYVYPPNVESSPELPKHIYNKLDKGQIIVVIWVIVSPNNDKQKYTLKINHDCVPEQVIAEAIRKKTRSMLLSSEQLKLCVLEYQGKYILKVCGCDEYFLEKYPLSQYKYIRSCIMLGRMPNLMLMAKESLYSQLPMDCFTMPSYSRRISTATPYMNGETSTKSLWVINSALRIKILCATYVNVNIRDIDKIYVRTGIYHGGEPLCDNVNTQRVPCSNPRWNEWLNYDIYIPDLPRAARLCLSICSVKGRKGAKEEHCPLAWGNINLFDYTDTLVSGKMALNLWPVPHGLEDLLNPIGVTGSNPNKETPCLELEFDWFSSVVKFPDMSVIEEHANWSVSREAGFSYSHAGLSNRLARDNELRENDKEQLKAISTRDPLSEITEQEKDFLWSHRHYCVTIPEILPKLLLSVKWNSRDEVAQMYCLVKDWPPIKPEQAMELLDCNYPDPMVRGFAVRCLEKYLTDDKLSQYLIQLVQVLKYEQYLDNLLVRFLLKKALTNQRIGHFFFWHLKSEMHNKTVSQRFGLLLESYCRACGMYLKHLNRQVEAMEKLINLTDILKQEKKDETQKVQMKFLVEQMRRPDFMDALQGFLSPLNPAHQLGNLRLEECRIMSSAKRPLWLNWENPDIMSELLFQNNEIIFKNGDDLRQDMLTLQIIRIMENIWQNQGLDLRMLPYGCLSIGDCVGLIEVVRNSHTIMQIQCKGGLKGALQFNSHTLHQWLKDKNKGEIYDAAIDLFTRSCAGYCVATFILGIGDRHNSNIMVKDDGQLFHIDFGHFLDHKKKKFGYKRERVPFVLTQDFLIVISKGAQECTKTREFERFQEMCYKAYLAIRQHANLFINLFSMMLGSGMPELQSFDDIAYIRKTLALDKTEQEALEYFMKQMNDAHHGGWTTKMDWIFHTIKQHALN
T1 sequence (P27986 whole entry partner): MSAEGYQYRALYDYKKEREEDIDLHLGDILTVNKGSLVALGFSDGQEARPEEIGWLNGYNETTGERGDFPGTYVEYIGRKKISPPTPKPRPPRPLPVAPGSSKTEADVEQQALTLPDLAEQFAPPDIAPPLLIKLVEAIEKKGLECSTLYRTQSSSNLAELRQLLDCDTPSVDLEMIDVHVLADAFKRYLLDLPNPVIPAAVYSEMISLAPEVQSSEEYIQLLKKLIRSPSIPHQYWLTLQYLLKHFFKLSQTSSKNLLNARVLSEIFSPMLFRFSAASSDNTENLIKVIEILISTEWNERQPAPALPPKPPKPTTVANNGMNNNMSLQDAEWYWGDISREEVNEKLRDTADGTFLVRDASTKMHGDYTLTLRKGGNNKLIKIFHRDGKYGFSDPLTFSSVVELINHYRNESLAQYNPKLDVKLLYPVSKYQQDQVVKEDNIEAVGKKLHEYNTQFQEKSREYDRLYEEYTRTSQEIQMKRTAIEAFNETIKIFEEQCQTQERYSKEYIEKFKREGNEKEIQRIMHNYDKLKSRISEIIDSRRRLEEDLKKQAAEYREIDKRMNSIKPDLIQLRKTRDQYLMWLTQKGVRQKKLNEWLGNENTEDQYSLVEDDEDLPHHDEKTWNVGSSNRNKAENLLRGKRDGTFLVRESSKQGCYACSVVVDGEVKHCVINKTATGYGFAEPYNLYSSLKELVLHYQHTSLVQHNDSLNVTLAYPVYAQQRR
T3 sequence (P48736 whole entry): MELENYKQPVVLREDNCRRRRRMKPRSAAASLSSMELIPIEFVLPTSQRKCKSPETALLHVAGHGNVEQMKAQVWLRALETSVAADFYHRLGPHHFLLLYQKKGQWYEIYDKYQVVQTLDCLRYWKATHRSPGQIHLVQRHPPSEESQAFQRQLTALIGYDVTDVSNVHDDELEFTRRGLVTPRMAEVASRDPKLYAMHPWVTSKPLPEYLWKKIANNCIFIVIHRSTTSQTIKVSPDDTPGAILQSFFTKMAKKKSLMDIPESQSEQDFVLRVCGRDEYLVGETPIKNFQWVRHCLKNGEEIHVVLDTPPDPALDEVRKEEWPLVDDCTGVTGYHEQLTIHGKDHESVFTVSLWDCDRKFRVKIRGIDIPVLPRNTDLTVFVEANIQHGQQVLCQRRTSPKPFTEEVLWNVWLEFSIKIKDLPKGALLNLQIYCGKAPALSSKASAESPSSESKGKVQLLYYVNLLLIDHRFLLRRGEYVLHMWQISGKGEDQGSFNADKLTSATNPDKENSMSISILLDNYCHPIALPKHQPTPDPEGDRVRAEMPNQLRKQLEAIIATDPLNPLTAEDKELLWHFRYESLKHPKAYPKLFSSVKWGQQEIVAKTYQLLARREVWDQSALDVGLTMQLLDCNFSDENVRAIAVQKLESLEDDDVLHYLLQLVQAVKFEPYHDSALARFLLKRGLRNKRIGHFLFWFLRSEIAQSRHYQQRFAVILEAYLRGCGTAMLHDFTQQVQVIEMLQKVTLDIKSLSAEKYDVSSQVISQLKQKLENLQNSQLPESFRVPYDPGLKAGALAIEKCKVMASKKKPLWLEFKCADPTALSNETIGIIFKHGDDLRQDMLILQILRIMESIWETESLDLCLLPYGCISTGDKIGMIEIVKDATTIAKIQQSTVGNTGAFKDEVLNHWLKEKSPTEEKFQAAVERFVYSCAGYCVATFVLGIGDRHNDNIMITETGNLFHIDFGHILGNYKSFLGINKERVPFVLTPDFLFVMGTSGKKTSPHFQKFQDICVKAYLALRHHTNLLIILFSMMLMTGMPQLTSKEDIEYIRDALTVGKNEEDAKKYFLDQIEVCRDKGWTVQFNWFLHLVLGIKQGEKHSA
T2 sequence (P42338 whole entry): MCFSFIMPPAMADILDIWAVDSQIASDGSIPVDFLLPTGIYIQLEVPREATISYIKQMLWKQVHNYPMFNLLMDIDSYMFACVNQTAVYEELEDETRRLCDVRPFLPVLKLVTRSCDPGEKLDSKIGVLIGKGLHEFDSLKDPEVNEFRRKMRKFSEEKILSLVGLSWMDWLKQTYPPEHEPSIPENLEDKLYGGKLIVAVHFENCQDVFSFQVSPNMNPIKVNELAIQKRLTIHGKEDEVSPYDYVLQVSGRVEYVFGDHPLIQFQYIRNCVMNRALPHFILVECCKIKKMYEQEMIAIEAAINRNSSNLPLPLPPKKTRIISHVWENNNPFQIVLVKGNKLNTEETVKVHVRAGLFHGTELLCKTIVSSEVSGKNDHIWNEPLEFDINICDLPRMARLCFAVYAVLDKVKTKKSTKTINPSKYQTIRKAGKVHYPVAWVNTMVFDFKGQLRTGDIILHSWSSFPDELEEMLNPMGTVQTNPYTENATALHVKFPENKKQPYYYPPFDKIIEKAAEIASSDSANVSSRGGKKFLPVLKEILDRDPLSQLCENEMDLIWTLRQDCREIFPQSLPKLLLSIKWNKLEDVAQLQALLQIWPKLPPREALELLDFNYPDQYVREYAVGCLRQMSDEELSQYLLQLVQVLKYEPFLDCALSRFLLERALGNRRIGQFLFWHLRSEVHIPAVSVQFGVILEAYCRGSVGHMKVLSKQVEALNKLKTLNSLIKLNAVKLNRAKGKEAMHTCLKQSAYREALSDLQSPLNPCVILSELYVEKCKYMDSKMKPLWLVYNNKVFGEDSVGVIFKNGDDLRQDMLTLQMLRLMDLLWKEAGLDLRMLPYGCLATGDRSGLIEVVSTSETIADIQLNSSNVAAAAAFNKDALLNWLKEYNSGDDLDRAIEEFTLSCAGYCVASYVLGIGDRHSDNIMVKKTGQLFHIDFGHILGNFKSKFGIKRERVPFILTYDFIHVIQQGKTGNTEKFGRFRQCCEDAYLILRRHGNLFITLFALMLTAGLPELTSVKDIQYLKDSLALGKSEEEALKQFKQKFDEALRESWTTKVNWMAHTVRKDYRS
T2 sequence (P27986 whole entry partner): as the sequence (P27986 whole entry partner) above
T4 sequence (O00329 whole entry): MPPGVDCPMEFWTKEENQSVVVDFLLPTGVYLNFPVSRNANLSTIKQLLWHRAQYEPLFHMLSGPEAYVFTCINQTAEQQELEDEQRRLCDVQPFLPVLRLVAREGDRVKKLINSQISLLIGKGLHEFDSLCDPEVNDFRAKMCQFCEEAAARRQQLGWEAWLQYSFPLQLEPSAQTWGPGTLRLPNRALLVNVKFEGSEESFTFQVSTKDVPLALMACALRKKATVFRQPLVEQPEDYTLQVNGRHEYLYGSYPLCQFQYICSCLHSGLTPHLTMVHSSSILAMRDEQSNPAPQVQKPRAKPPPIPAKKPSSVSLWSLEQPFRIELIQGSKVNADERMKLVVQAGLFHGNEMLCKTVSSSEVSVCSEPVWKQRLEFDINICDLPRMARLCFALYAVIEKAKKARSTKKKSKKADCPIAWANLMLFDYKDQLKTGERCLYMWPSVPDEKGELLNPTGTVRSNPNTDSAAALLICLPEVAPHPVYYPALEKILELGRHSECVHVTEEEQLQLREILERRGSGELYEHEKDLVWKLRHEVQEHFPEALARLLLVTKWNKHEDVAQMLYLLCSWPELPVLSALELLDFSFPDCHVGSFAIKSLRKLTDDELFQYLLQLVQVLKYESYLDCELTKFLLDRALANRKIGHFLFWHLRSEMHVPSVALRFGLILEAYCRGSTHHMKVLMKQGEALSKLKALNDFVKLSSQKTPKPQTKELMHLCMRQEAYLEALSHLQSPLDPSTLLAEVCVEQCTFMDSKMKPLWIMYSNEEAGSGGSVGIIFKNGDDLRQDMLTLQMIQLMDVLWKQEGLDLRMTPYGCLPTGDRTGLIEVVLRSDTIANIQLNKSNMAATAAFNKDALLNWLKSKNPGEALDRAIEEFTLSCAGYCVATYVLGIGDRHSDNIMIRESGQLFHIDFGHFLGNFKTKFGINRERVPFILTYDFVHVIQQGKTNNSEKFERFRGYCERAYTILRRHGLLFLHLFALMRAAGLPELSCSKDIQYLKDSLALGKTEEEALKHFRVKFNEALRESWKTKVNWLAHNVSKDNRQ
T4 sequence (P27986 whole entry partner): as the sequence (P27986 whole entry partner) above

| Structure (SMILES) | inhibition at 1.11 µM (PI3Kalpha) [%] | inhibition at 1.11 µM (PI3Kbeta) [%] | PI3Kalpha % inh (PI3Kalpha) [%] | PI3Kbeta % inh (PI3Kbeta) [%] | also measured |
| --- | --- | --- | --- | --- | --- |
| NC(=O)[C@@H]1NC(=O)c2sc(N3CCOCC3)cc2[C@H]1c1ccc(Cl)c(Cl)c1 (relative stereo) [Compound 146, rel-(4R,5R)-4-(3,4-dichlorophenyl)-2-(morpholin-4-yl)-7-oxo-4,5,6,7-tetrahydrothieno[2,3-c]pyridine-5-carboxamide] | 40.4 | 107 |  |  | inhibition at 1.11 µM (PI3Kgamma): 50.7%; inhibition at 1.11 µM (PI3Kdelta): 99.7% |
| O=C1N[C@@H](CO)[C@H](c2ccc(Cl)c(Cl)c2)c2cc(N3CCOCC3)sc21 (relative stereo) [Compound 192, rel-(4R,5R)-4-(3,4-dichlorophenyl)-5-(hydroxymethyl)-2-(morpholin-4-yl)-5,6-dihydrothieno[2,3-c]pyridin-7(4H)-one] | 39.6 | 106 |  |  | inhibition at 1.11 µM (PI3Kgamma): 52.9%; inhibition at 1.11 µM (PI3Kdelta): 105% |
| O=C1CC(c2ccc3ccccc3c2)c2cc(N3CCOCC3)sc21 (centres unmarked) [Compound 119] | 42.4 | 107 |  |  | inhibition at 1.11 µM (PI3Kgamma): 60.3%; inhibition at 1.11 µM (PI3Kdelta): 99.8% |
| CNC(=O)[C@@H]1NC(=O)c2sc(N3CCOCC3)cc2[C@H]1c1ccc(Cl)cc1 [Compound 123] |  |  | 32.28 | 101.46 | inhibition at 1.11 µM (PI3Kgamma): 10.4%; inhibition at 1.11 µM (PI3Kdelta): 49.6% |
| O=C1NCC(c2ccc(Cl)cc2)c2nc(N3CCOCC3)sc21 (centres unmarked) [Compound 124] | 12.2 | 93.5 |  |  | inhibition at 1.11 µM (PI3Kgamma): 9.41%; inhibition at 1.11 µM (PI3Kdelta): 59.2% |
| O=C1N[C@@H](CO)[C@H](c2ccc(Cl)cc2)c2cc(N3CCOCC3)sc21 [Compound 133] | 35 | 110 |  |  | inhibition at 1.11 µM (PI3Kgamma): 30.7%; inhibition at 1.11 µM (PI3Kdelta): 102% |
| CCCOC(=O)[C@@H]1NC(=O)c2sc(N3CCOCC3)cc2[C@H]1c1ccc(Cl)cc1 [Compound 136] |  |  | 17.00 | 87.47 | PI3Kgamma % inh (PI3Kgamma; at 1.11 μM): 4.11%; PI3Kdelta % inh (PI3Kdelta; at 1.11 μM): 35.35% |
| O=C1NCCC(c2ccc(Cl)cc2)c2cc(N3CCOCC3)sc21 (centres unmarked) [Compound 148] |  |  | 24.59 | 118.63 | inhibition at 1.11 µM (PI3Kgamma): 13.2%; inhibition at 1.11 µM (PI3Kdelta): 98.2% |
| N#Cc1c(N2CCOCC2)sc2c1C(c1ccc(Cl)cc1)CCNC2=O (centres unmarked) [Compound 150] | 26.8 | 108 |  |  | inhibition at 1.11 µM (PI3Kgamma): 21.5%; inhibition at 1.11 µM (PI3Kdelta): 99.9% |
| N#Cc1c(N2CCOCC2)sc2c1C(c1c(F)cc(Cl)cc1F)CNC2=O (centres unmarked) [Compound 151] | 43.1 | 103 |  |  | inhibition at 1.11 µM (PI3Kgamma): 41%; inhibition at 1.11 µM (PI3Kdelta): 90% |
| COC(=O)c1cc(C2CCNC(=O)c3sc(N4CCOCC4)nc32)ccc1Cl (centres unmarked) [Compound 174, methyl 2-chloro-5-[2-(morpholin-4-yl)-4-oxo-5,6,7,8-tetrahydro-4H-[1,3]thiazolo[5,4-c]azepin-8-yl]benzoate] | 4.56 | 82.5 |  |  |  |
| COCCNC(=O)[C@@H]1NC(=O)c2sc(N3CCOCC3)cc2[C@H]1c1ccc(Cl)cc1 [Compound 177] | 29.6 | 58.5 |  |  |  |
| Cc1cc(-c2nc3c(s2)C(=O)NCC3c2ccc3ccccc3c2)ccn1 (centres unmarked) [Compound 179] | 21.6 | 107 |  |  |  |
| COC(=O)c1[nH]c(=O)c2sc(N3CCOCC3)cc2c1-c1ccc(Cl)c(Cl)c1 [Compound 184, methyl 4-(3,4-dichlorophenyl)-2-(morpholin-4-yl)-7-oxo-6,7-dihydrothieno[2,3-c]pyridine-5-carboxylate] | 6.62 | 77.5 |  |  |  |
| N#Cc1c(N2CCOCC2)sc2c1C(c1ccc(Cl)c(Cl)c1)NC2=O (centres unmarked) [Compound 187] | 38.4 | 104 |  |  |  |
| O=C1NCC(c2ccc3ccncc3c2)c2nc(N3CCOCC3)sc21 (centres unmarked) [Compound 189] | 25.9 | 116 |  |  |  |
| Cc1cc(C2CNC(=O)c3sc(N4CCOCC4)cc32)ccc1Cl (centres unmarked) [Compound 194] | 38.6 | 113 |  |  |  |

| Structure (SMILES) | inhibition at 1.11 µM (PI3Kalpha) [%] | inhibition at 1.11 µM (PI3Kbeta) [%] | PI3Kalpha % inh (PI3Kalpha) [%] | PI3Kbeta % inh (PI3Kbeta) [%] | also measured |
| --- | --- | --- | --- | --- | --- |
| O=C1NCC=C(c2ccc3ccncc3c2)c2nc(N3CCOCC3)sc21 [Compound 195] | 16.5 | 62.5 |  |  |  |
| C=CCC1(C(=O)O)NC(=O)c2sc(N3CCOCC3)cc2C1c1ccc(Cl)c(Cl)c1 (centres unmarked) [Compound 196, 5-allyl-4-(3,4-dichlorophenyl)-2-(morpholin-4-yl)-7-oxo-4,5,6,7-tetrahydrothieno[2,3-c]pyridine-5-carboxylic acid] | 13.7 | 84.3 |  |  |  |
| N#Cc1c(N2CCOCC2)sc2c1C(c1ccc(Cl)c(Cl)c1)CCNC2=O (centres unmarked) [Compound 199] |  |  | 65.98 | 115.55 |  |
| O=C1N[C@@H](C(=O)NCCCO)[C@H](c2ccc(Cl)cc2)c2cc(N3CCOCC3)sc21 [Compound 200] |  |  | 48.20 | 53.94 |  |
| O=C1NCCC(c2ccc(Cl)cc2)c2cc(N3CCOCC3)sc21 (centres unmarked) [Compound 201, 4-(4-chlorophenyl)-2-(morpholin-4-yl)-4,5,6,7-tetrahydro-8H-thieno[2,3-c]azepin-8-one] | 16.7 |  |  | 79.38 |  |
| O=C1N[C@@H](CO)CC(c2ccc3ccccc3c2)c2nc(N3CCOCC3)sc21 (some centres unmarked) [Compound 202] |  |  | 88.75 | 113.55 |  |
| CCNC(=O)[C@@H]1NC(=O)c2sc(N3CCOCC3)cc2[C@H]1c1ccc(Cl)cc1 [Compound 203] |  |  | 40.46 | 66.37 |  |
| O=C1N[C@@H](C(=O)NCCO)[C@H](c2ccc(Cl)cc2)c2cc(N3CCOCC3)sc21 [Compound 204] |  |  | 51.34 | 60.14 |  |
| Cc1cc(C2CNC(=O)c3sc(N4CCOCC4)cc32)ccc1Cl (centres unmarked) [Compound 205] |  |  | 28.04 | 96.83 |  |
| CNC(=O)[C@@H]1NC(=O)c2sc(-c3ccncc3)cc2[C@H]1c1ccc(Cl)cc1 [Compound 206] | 41.8 | 58.5 |  |  |  |
| CNC(=O)[C@@H]1NC(=O)c2sc(C3=CCOCC3)cc2[C@H]1c1ccc(Cl)cc1 [Compound 207] | 42.9 |  |  | 62.94 |  |
| O=C1NCC(c2ccc(Cl)c(Cl)c2)c2cc(N3CCOCC3)sc21 (centres unmarked) [Compound 208] | 18.4 | 96.8 |  |  |  |
| O=C1NCC(c2ccc(Cl)cc2)c2cc(N3CCOCC3)sc21 (centres unmarked) [Compound 211] | 20.5 |  |  | 62.33 |  |
| CNC(=O)[C@@H]1NC(=O)c2sc(N3CCOCC3)cc2[C@H]1c1ccc(Cl)cc1 [Compound 212] |  |  | 54.25 | 65.59 |  |
| O=C(O)CN1CC(c2ccc(Cl)cc2)c2cc(N3CCOCC3)sc2C1=O (centres unmarked) [Compound 213, 2-(4-(4-chlorophenyl)-2-morpholino-7-oxo-4,5-dihydrothieno[2,3-c]pyridin-6(7H)-yl)acetic acid] | 5.63 | 99.3 |  |  |  |
| NC(=O)CN1CC(c2ccc(Cl)cc2)c2cc(N3CCOCC3)sc2C1=O (centres unmarked) [Compound 214, 2-(4-(4-chlorophenyl)-2-morpholino-7-oxo-4,5-dihydrothieno[2,3-c]pyridin-6(7H)-yl)acetamide] | 5.13 | 110 |  |  |  |
